Test results: ChEMBL document CHEMBL1130766, “Phosphodiesterase inhibitory properties of losartan. Design and synthesis of new lead compounds” (Bioorg Med Chem Lett, 1998)

Legend:
[1] = target: T1, Phosphodiesterase 3 (Homo sapiens, UniProt Q14432+Q13370); assay: Inhibition of guinea pig ventricular Phosphodiesterase 3 (PDE 3) at 200 uM; type: protein assay; conditions: Cavia porcellus, target entry is the homologue from another species
[2] = target: T2, Phosphodiesterase 4 (Homo sapiens, UniProt P27815+Q08499+Q07343+Q08493); assay: Inhibitory effect in cAMP-specific Phosphodiesterase 4 (PDE 4) isolated from guinea pig ventricular tissue.; type: protein assay, Cavia porcellus; conditions: target entry is the homologue from another species
[3] = target: T1, Phosphodiesterase 3; assay: Inhibitory effect in cGMP-inhibited Phosphodiesterase 3 (PDE 3) isolated from guinea pig ventricular tissue.; type: protein assay, Cavia porcellus; conditions: target entry is the homologue from another species
[4] = target: T1, Phosphodiesterase 3; assay: Inhibition of guinea pig ventricular Phosphodiesterase 3 (PDE 3); type: protein assay, Cavia porcellus; conditions: target entry is the homologue from another species
[5] = target: T2, Phosphodiesterase 4; assay: Inhibition of guinea pig ventricular Phosphodiesterase 4 (PDE 4) at 200 uM; type: protein assay; conditions: Cavia porcellus, target entry is the homologue from another species

Structure (SMILES)	inhibition [1]	IC50 [2]	IC50 [3]	IC50 [4]	inhibition [5]
CCCCN(Cc1ccccc1-c1ccccc1)c1nc2c3c(ccc2s1)CCCC3	15%	42 µM			
CCCCN(Cc1ccccc1)c1nc2nc3ccccc3n2s1	0%	90 µM			
CCCc1nc(SCc2ccc(-c3ccccc3-c3nn[nH]n3)cc2)c2ccccc2n1		3.8 µM	6.8 µM		
CCCCc1nc(Cl)c(CO)n1Cc1ccc(-c2ccccc2-c2nnn[nH]2)cc1 [LOSARTAN]				13 µM	
CCN(Cc1ccccc1-c1ccccc1)c1nc2nc3ccccc3n2s1	41%	48 µM			
CCCCc1nc(SCc2ccc(-c3ccccc3-c3nn[nH]n3)cc2)c2ccccc2n1		2.9 µM	8 µM		
CCCc1nc(SCc2ccc(-c3ccccc3-c3nn[nH]n3)cc2)c2cc(C)cc(C)c2n1		8.6 µM	11 µM		
CCN(Cc1ccccc1)c1nc2nc3ccccc3n2s1	12%	32 µM			
CCCCN(Cc1ccc(-c2ccccc2-n2ncnn2)cc1)c1nc2nc3ccccc3n2s1	50%				48%
Cc1nc(SCc2ccc(-c3ccccc3-c3nn[nH]n3)cc2)c2ccccc2n1		15 µM	4.8 µM		
CCCCc1nc(NCc2ccc(-c3ccccc3-c3nn[nH]n3)cc2)c2ccccc2n1		7.6 µM	16 µM		
CCCCN(Cc1ccccc1-c1ccccc1)c1nc2nc3ccccc3n2s1	31%	30 µM			
CCc1nc(NCc2ccc(-c3ccccc3-c3nn[nH]n3)cc2)c2ccccc2n1		21 µM	24 µM		
CCN(Cc1ccccc1-n1ncnn1)c1nc2nc3ccccc3n2s1	15%	107 µM			
CCc1nc(OCc2ccc(-c3ccccc3-c3nn[nH]n3)cc2)c2ccccc2n1		14 µM	5.8 µM		
CCCCN(Cc1ccccc1-n1ncnn1)c1nc2nc3ccccc3n2s1	32%				44%
CC(C)c1nc(SCc2ccc(-c3ccccc3-c3nn[nH]n3)cc2)c2ccccc2n1		3.8 µM	2.4 µM		
CCN(Cc1ccc(-c2ccccc2-n2ncnn2)cc1)c1nc2nc3ccccc3n2s1		74 µM		125 µM	
CCc1nc(SCc2ccc(-c3ccccc3-c3nn[nH]n3)cc2)c2ccccc2n1		3.3 µM	7 µM		
CCCc1nc(SCc2ccc(-c3ccccc3-c3nn[nH]n3)cc2)c2cc(C)ccc2n1		3.8 µM	2.4 µM		
CCCCc1nc(OCc2ccc(-c3ccccc3-c3nn[nH]n3)cc2)c2ccccc2n1		7.9 µM	5.4 µM		
